Like-named read-outs stand apart in the source and are kept apart here.
Tests used:
CEM-C1 = experiment: OncoPanel cell proliferation assay, CEM-C1; format: cell-based, human; conditions: for Relative cell count (%) Mean: CEM-C1
Protocol: (§1) Cells were grown in RPMI 1640, 10% FBS, 2 mM L-alanyl-L-glutamine, 1 mM Na pyruvate, or a special medium. Cells were seeded into 384-well plates and incubated in a humidified atmosphere of 5% CO2 at 37° C. Compounds were added the day following cell seeding. At the same time, a time zero untreated cell plate was generated. After a 3-day incubation period, cells were fixed and stained to allow fluorescence imaging of nuclei. Compounds (1 mM stock solutions) were serially diluted in half-log steps from the highest test concentration ([…]), and assayed over 10 concentrations with a maximum assay concentration of 0.1% DMSO. Automated fluorescence microscopy was carried out using a Molecular Devices ImageXpress Micro XL high-content imager, and images were collected with a 4× objective. 16-bit TIFF images were acquired and analyzed with MetaXpress 5.1.0.41 software.
(§2) Cell proliferation was measured by the fluorescence intensity of an incorporated nuclear dye. The output is referred to as the relative cell count, where the measured nuclear intensity is transformed to percent of control (POC) using the following formula: […]
(§3) Cellular response parameters were calculated using nonlinear regression to a sigmoidal single-site dose response model:
(§4) Where y is a response measured at concentration x, A and B are the lower and upper limits of the response, C is the concentration at the response midpoint (EC50), and D is the Hill Slope (Ref. 1).
(§5) EC50 is the test compound concentration at the curve inflection point or half the effective response (parameter C of the fitted curve solution). GI50 is the concentration needed to reduce the observed growth by half (midway between the curve maximum and the time zero value). “Cell Count Activity Area” is an estimate of the integrated area above the curve (Barretina, et al. The Cancer Cell Line Encyclopedia enables predictive modelling of anticancer drug sensitivity. Nature 483: 603-607). […] In rare instances, values <0 or >10 may be observed. […] Curve-fitting, calculations, and report generation was performed using a custom data reduction engine and MathIQ based software (AIM).

SHP-77 = experiment: OncoPanel cell proliferation assay, SHP-77; conditions: for Relative cell count (%) Mean: SHP-77
Protocol: (§6) Cells were seeded into 384-well plates and incubated in a humidified atmosphere of 5% CO2 at 37° C. Compounds were added the day following cell seeding. At the same time, a time zero untreated cell plate was generated. After a 3-day incubation period, cells were fixed and stained to allow fluorescence imaging of nuclei. Compounds (1 mM stock solutions) were serially diluted in half-log steps from the highest test concentration (1 micromol), and assayed over 10 concentrations with a maximum assay concentration of 0.1% DMSO. Automated fluorescence microscopy was carried out using a Molecular Devices ImageXpress Micro XL high-content imager, and images were collected with a 4× objective. 16-bit TIFF images were acquired and analyzed with MetaXpress 5.1.0.41 software.

RKOE6 = experiment: OncoPanel cell proliferation assay, RKOE6; conditions: for Relative cell count (%) Mean: RKOE6
Protocol: as §6

A388 = experiment: OncoPanel cell proliferation assay, A388; format: cell-based, human; conditions: for Relative cell count (%) Mean: A388
Protocol: as §1, with “Cells” for “Cells were grown in RPMI 1640, 10% FBS, 2 mM L-alanyl-L-glutamine, 1 mM Na pyruvate, or a special medium. Cells”
as §2, §3, §4
GI50 is the concentration needed to reduce the observed growth by half (midway between the curve maximum and the time zero value). […] In rare instances, values <0 or >10 may be observed. […] Curve-fitting, calculations, and report generation was performed using a custom data reduction engine and MathIQ based software (AIM).

RL95-2 = experiment: OncoPanel cell proliferation assay, RL95-2; format: cell-based, human; conditions: for Relative cell count (%) Mean: RL95-2
Protocol: as §1, §2, §3, §4, §5

AsPC-1 = experiment: OncoPanel cell proliferation assay, AsPC-1; conditions: for Relative cell count (%) Mean: AsPC-1
Protocol: as §6

Structure (SMILES): CO[C@H]1C[C@@H]2CC[C@@H](C)[C@@](O)(O2)C(=O)C(=O)N2CCCC[C@H]2C(=O)O[C@H]([C@H](C)C[C@@H]2C[C@@H]3C[C@H]2C[C@H]3O)CC(=O)[C@H](C)/C=C(\C)[C@@H](O)[C@@H](OC)C(=O)[C@H](C)C[C@H](C)/C=C/C=C/C=C/1C [Formula I, 37R-hydroxynorbornylrapamycin]
- Cell Count Activity Area (CEM-C1; CEM-C1, scale 0-10): 3.52
- Relative cell count (%) Mean (CEM-C1; 1.00E+00 microM): 47.1%
- Relative cell count (%) Mean (CEM-C1; 1.00E−01 microM): 53.2%
- Relative cell count (%) Mean (CEM-C1; 1.00E−02 microM): 58.4%
- Relative cell count (%) Mean (CEM-C1; 1.00E−03 microM): 68.7%
- Relative cell count (%) Mean (CEM-C1; 1.01E−04 microM): 90.0%
- Relative cell count (%) Mean (CEM-C1; 3.16E−01 microM): 48.9%
- Relative cell count (%) Mean (CEM-C1; 3.17E−02 microM): 53.1%
- Relative cell count (%) Mean (CEM-C1; 3.17E−03 microM): 62.4%
- Relative cell count (%) Mean (CEM-C1; 3.18E−04 microM): 72.7%
- Relative cell count (%) Mean (CEM-C1; 3.18E−05 microM): 94.0%
- EC50 (CEM-C1; Homo sapiens, 72 h, CEM-C1, 3-day incubation, read-out: Cell Count EC50): 0.5 nM
- GI50 (CEM-C1; Homo sapiens, 72 h, CEM-C1, 3-day incubation, read-out: Cell Count GI50): 10.2 nM
- IC50 (CEM-C1; Homo sapiens, 72 h, CEM-C1, 3-day incubation, read-out: Cell Count IC50): 391 nM
- EC50 (SHP-77; Homo sapiens, SHP77, 72 h, read-out: Cell Count EC50): 309 nM
- GI50 (SHP-77; Homo sapiens, SHP77, 72 h, read-out: Cell Count GI50): > 1000 nM
- IC50 (SHP-77; Homo sapiens, SHP77, 72 h, read-out: Cell Count IC50): > 1000 nM
- Cell Count Activity Area (SHP-77; SHP-77, scale 0-10): 1.18
- Relative cell count (%) Mean (SHP-77; 1.00E+00 microM): 71.6%
- Relative cell count (%) Mean (SHP-77; 1.00E−01 microM): 83.4%
- Relative cell count (%) Mean (SHP-77; 1.00E−02 microM): 94.0%
- Relative cell count (%) Mean (SHP-77; 1.00E−03 microM): 96.5%
- Relative cell count (%) Mean (SHP-77; 1.01E−04 microM): 98.0%
- Relative cell count (%) Mean (SHP-77; 3.16E−01 microM): 75.9%
- Relative cell count (%) Mean (SHP-77; 3.17E−02 microM): 84.9%
- Relative cell count (%) Mean (SHP-77; 3.17E−03 microM): 89.5%
- Relative cell count (%) Mean (SHP-77; 3.18E−04 microM): 101.7%
- Relative cell count (%) Mean (SHP-77; 3.18E−05 microM): 99.1%
- EC50 (RKOE6; Homo sapiens, RKOE6, 72 h, read-out: Cell Count EC50): 0.201 nM
- GI50 (RKOE6; Homo sapiens, RKOE6, 72 h, read-out: Cell Count GI50): 1.07 nM
- IC50 (RKOE6; Homo sapiens, RKOE6, 72 h, read-out: Cell Count IC50): 2.88 nM
- Cell Count Activity Area (RKOE6; RKOE6, scale 0-10): 4.44
- Relative cell count (%) Mean (RKOE6; 1.00E+00 microM): 41.6%
- Relative cell count (%) Mean (RKOE6; 1.00E−01 microM): 43.0%
- Relative cell count (%) Mean (RKOE6; 1.00E−02 microM): 47.6%
- Relative cell count (%) Mean (RKOE6; 1.00E−03 microM): 55.7%
- Relative cell count (%) Mean (RKOE6; 1.01E−04 microM): 73.6%
- Relative cell count (%) Mean (RKOE6; 3.16E−01 microM): 41.0%
- Relative cell count (%) Mean (RKOE6; 3.17E−02 microM): 42.9%
- Relative cell count (%) Mean (RKOE6; 3.17E−03 microM): 52.5%
- Relative cell count (%) Mean (RKOE6; 3.18E−04 microM): 66.1%
- Relative cell count (%) Mean (RKOE6; 3.18E−05 microM): 92.5%
- Cell Count Activity Area (A388; A388, scale 0-10): 3.22
- Relative cell count (%) Mean (A388; 1.00E+00 microM): 53.8%
- Relative cell count (%) Mean (A388; 1.00E−01 microM): 62.3%
- Relative cell count (%) Mean (A388; 1.00E−02 microM): 63.3%
- Relative cell count (%) Mean (A388; 1.00E−03 microM): 69.1%
- Relative cell count (%) Mean (A388; 1.01E−04 microM): 77.9%
- Relative cell count (%) Mean (A388; 3.16E−01 microM): 59.0%
- Relative cell count (%) Mean (A388; 3.17E−02 microM): 59.6%
- Relative cell count (%) Mean (A388; 3.17E−03 microM): 67.1%
- Relative cell count (%) Mean (A388; 3.18E−04 microM): 76.3%
- Relative cell count (%) Mean (A388; 3.18E−05 microM): 89.9%
- EC50 (A388; Homo sapiens, 72 h, A388, 3-day incubation, read-out: Cell Count EC50): 0.19 nM
- GI50 (A388; Homo sapiens, 72 h, A388, 3-day incubation, read-out: Cell Count GI50): 50.7 nM
- IC50 (A388; Homo sapiens, 72 h, A388, 3-day incubation, read-out: Cell Count IC50): > 1000 nM
- EC50 (RL95-2; Homo sapiens, 72 h, RL95-2, 3-day incubation, read-out: Cell Count EC50): 0.15 nM
- GI50 (RL95-2; Homo sapiens, 72 h, RL95-2, 3-day incubation, read-out: Cell Count GI50): 0.22 nM
- IC50 (RL95-2; Homo sapiens, 72 h, RL95-2, 3-day incubation, read-out: Cell Count IC50): 10.9 nM
- Cell Count Activity Area (RL95-2; RL95-2, scale 0-10): 4.12
- Relative cell count (%) Mean (RL95-2; 1.00E+00 microM): 47.2%
- Relative cell count (%) Mean (RL95-2; 1.00E−01 microM): 50.6%
- Relative cell count (%) Mean (RL95-2; 1.00E−02 microM): 52.2%
- Relative cell count (%) Mean (RL95-2; 1.00E−03 microM): 59.5%
- Relative cell count (%) Mean (RL95-2; 1.01E−04 microM): 78.3%
- Relative cell count (%) Mean (RL95-2; 3.16E−01 microM): 45.6%
- Relative cell count (%) Mean (RL95-2; 3.17E−02 microM): 48.5%
- Relative cell count (%) Mean (RL95-2; 3.17E−03 microM): 52.9%
- Relative cell count (%) Mean (RL95-2; 3.18E−04 microM): 64.0%
- Relative cell count (%) Mean (RL95-2; 3.18E−05 microM): 89.3%
- Cell Count Activity Area (AsPC-1; AsPC-1, scale 0-10): 2.50
- Relative cell count (%) Mean (AsPC-1; 1.00E+00 microM): 64.8%
- Relative cell count (%) Mean (AsPC-1; 1.00E−01 microM): 74.0%
- Relative cell count (%) Mean (AsPC-1; 1.00E−02 microM): 68.9%
- Relative cell count (%) Mean (AsPC-1; 1.00E−03 microM): 81.7%
- Relative cell count (%) Mean (AsPC-1; 1.01E−04 microM): 89.6%
- Relative cell count (%) Mean (AsPC-1; 3.16E−01 microM): 67.9%
- Relative cell count (%) Mean (AsPC-1; 3.17E−02 microM): 74.7%
- Relative cell count (%) Mean (AsPC-1; 3.17E−03 microM): 77.8%
- Relative cell count (%) Mean (AsPC-1; 3.18E−04 microM): 94.5%
- Relative cell count (%) Mean (AsPC-1; 3.18E−05 microM): 99.5%
- EC50 (AsPC-1; Homo sapiens, ASPC1): 0.52 nM
- EC50 (AsPC-1; Homo sapiens, ASPC1, 72 h, read-out: Cell Count EC50): 0.519 nM
- GI50 (AsPC-1; Homo sapiens, ASPC1, 72 h, read-out: Cell Count GI50): 8.07 nM
